# Source: ChEMBL document CHEMBL3045644, “Synthesis anti-inflammatory and anticancer activity evaluation of some pyrazole and oxadiazole derivatives” (2012)
# How the values were obtained:
# Format in all cases: functional
# HepG2 = assay: Growth inhibition of Homo sapiens (human) HepG2 cells at 10 uM after 48 hr by SRB assay; conditions: HepG2, 48 h, read-out: GI
# T47D = assay: Growth inhibition of Homo sapiens (human) T47D cells at 10 uM after 48 hr by SRB assay; conditions: read-out: GI
# NCI-H522 = assay: Growth inhibition of Homo sapiens (human) NCI-H522 cells at 10 uM after 48 hr by SRB assay; conditions: NCI-H522, 48 h, read-out: GI
# HCT-15 = assay: Growth inhibition of Homo sapiens (human) HCT15 cells at 10 uM after 48 hr by SRB assay; conditions: HCT-15, 48 h, read-out: GI
# PA-1 = assay: Growth inhibition of Homo sapiens (human) PA1 cells at 10 uM after 48 hr by SRB assay; conditions: PA-1, 48 h, read-out: GI
# Rattus norvegicus = assay: Anti-inflammatory activity in Charles Foster albino Rattus norvegicus (rat) assessed as inhibition of carrageenan-induced paw edema at 50 mg/kg, po […] measured up to 3 hr relative to control
SMILES,inhibition of growth at 10 µM (HepG2) [%],inhibition of growth at 10 µM (T47D) [%],inhibition of growth at 10 µM (NCI-H522) [%],inhibition of growth at 10 µM (HCT-15) [%],inhibition of growth at 10 µM (PA-1) [%],inhibition in vivo at 50 mg/kg (Rattus norvegicus) [%]
COc1ccc(OC)c(C2CC(c3ccncc3)=NN2)c1 (centres undefined),34,19,24,28,24,13
CN(C)c1ccc(C2CC(c3ccccn3)=NN2)cc1 (centres undefined),29,3,34,5,21,18
COc1ccc(OC)c(-c2nc(-c3cnccn3)no2)c1,17,41,23,7,26,11
O=c1[nH]cc(F)c(=O)[nH]1 [FLUOROURACIL],18,5,24,8,10,
COc1cc(-c2nc(-c3cnccn3)no2)ccc1O,20,35,20,1,20,26
COc1cc(-c2nc(-c3ccccn3)no2)ccc1O,39,33,48,3,30,24
CN(C)c1ccc(C2CC(c3cccnc3)=NN2)cc1 (centres undefined),35,15,25,6,36,22
CN(C)c1ccc(C2CC(c3ccccn3)=NN2c2ccccc2)cc1 (centres undefined),24,41,26,12,16,35
COc1ccc(OC)c(C2CC(c3cccnc3)=NN2c2ccccc2)c1 (centres undefined),26,22,32,7,32,24
COc1ccc(OC)c(-c2nc(-c3ccccn3)no2)c1,33,37,23,5,25,28
CN(C)c1ccc(C2CC(c3ccncc3)=NN2)cc1 (centres undefined),29,21,28,3,26,0
C[C@@H]1C[C@@H]([C@H](O)CC2CC(=O)NC(=O)C2)C(=O)[C@@H](C)C1 [CYCLOHEXIMIDE],5,9,13,3,51,
CN(C)c1ccc(C2CC(c3ccncc3)=NN2c2ccccc2)cc1 (centres undefined),35,7,32,6,24,32
CC(C)Cc1ccc(C(C)C(=O)O)cc1 (centres undefined) [IBUPROFEN],,,,,,39
CN(C)c1ccc(C2CC(c3cccnc3)=NN2c2ccccc2)cc1 (centres undefined),32,33,20,1,20,34
COc1cc(-c2nc(-c3ccncc3)no2)ccc1O,13,34,25,5,32,14
COc1ccc(OC)c(C2CC(c3ccccn3)=NN2c2ccccc2)c1 (centres undefined),20,12,16,9,18,27
COc1ccc(OC)c(C2CC(c3ccccn3)=NN2)c1 (centres undefined),23,26,28,10,25,15
COc1ccc(OC)c(C2CC(c3ccncc3)=NN2c2ccccc2)c1 (centres undefined),32,37,29,5,31,18
O=P1(N(CCCl)CCCl)NCCCO1 (centres undefined) [CYCLOPHOSPHAMIDE ANHYDROUS],14,18,4,5,4,
COc1ccc(OC)c(C2CC(c3cccnc3)=NN2)c1 (centres undefined),34,13,40,4,31,15
COc1ccc(OC)c(-c2nc(-c3ccncc3)no2)c1,27,25,10,2,19,35
